{
  "source": "patent US20230210096A1",
  "about": "“NON-HUMAN ANIMAL MODELS FOR AGING AND/OR NEURODEGENERATION” (University of Pittsburgh - Of the Commonwealth System of …, priority 2020, published 2023)",
  "molecules": {"B1": {"name": "DNAse1: DNAse1 protein transfected to degrade cytosolic DNA (protein, UniProt P24855 23-282, looked up)", "Deoxyribonuclease-1": "LKIAAFNIQTFGETKMSNATLVSYIVQILSRYDIALVQEVRDSHLTAVGKLLDNLNQDAPDTYHYVVSEPLGRNSYKERYLFVYRPDQVSAVDSYYYDDGCEPCGNDTFNREPAIVRFFSRFTEVREFAIVPLHAAPGDAVAEIDALYDVYLDVQEKWGLEDVMLMGDFNAGCSYVRPSQWSSIRLWTSPTFQWLIPDSADTTATPTHCAYDRIVVAGMLLRGAVVPDSALPFNFQAAYGLSDQLAQAISDHYPVEVMLK"}},
  "key": {"[1]": {"tested_on": "AANAT-KO primary cerebrocortical neurons (PCNs)", "assay": "Cytokine ELISA in culture medium of PCNs", "format": "cell-based, mouse", "settings": "AANAT-KO PCN, DIV21, melatonin 5 µM", "description": "(§1) N2a cells were obtained from ATCC and grown in DMEM/F12 medium with 10% FBS. AANAT-KO N2a cells were generated as described elsewhere (see, e.g., Suofu et al., PNAS 114:E7997-E8006 (2017)). N2a cells were differentiated by exposing them to 10 µM retinoic acid (RA) with 2% fetal bovine serum (FBS) for 8 days. Every alternate day, the culture medium of differentiating N2a cells was replaced with fresh medium containing 10 µM of RA. N2a cells were treated with 5 µM melatonin during differentiation to evaluate the effect of melatonin in WT and AANAT-KO N2a differentiated neurons. Fresh melatonin was added with RA every alternate day for 8 days. All experiments were performed in 8-day-differentiated neurons with or without melatonin. STHdh^Q7/Q7 (Q7) STHdh^Q111/Q111 (Q111) cells were grown in MEM culture medium with 10% FBS. Differentiation of Q7 and Q111 cells was induced by exposing cells to 10 ng/mL α-FGF, 250 µM 3-isobutyl-1-methylxanthine (IBMX), 200 nM phorbol 12-myristate 13-acetate (TPA), 50 µM forskolin and 10 µM dopamine for 2 days. AANAT-KO and littermate WT primary cerebro-cortical neuron (PCN) cultures were prepared from embryonic day (E) 15.5 embryos, as described elsewhere (see, e.g., Yano et al., Nature neuroscience 17:822 (2014))."}, "R6/2 mice": {"tested_on": "R6/2 mice", "assay": "Melatonin injection in R6/2 mouse model of HD: cytosolic mtDNA, cGAS/STING/IRF3, cytokines", "format": "in vivo", "settings": "melatonin 30 mg/kg injected daily from 6 to 9 weeks of age", "description": "Since melatonin is protective in R6/2 mice and melatonin is deficient in humans with HD, it was evaluated whether exogenous melatonin reduces mtDNA release and consequent inflammation. Six-week old R6/2 mice were injected with melatonin daily for 3 weeks. Melatonin inhibited mtDNA release and ameliorated cGAS/STING/IRF3 upregulation in cortex and striatum in 9-week R6/2 mice (FIGS. 12D and E, and FIG. 13A).\nR6/2 mice, which carry the promoter sequence and exon 1 of a mutant human HTT gene with approximately 150 CAG repeats, were obtained from JAX (Bar Harbor, ME). A colony was maintained by breeding R6/2 males with B6CBAF1 females (JAX). CAG repeat length was determined for every mouse in the colony and mice with 150 +/-10 CAG repeats were used. PCR genotyping was performed. Three, six and Nine week-old R6/2 mice were used in the experiments.\n(§2) Samples (isolated mitochondria or whole-cell lysates) were cleared by centrifugation at 20,000 x g, equal amounts of protein were separated on Novex 4-12% gradient polyacrylamide gels (Invitrogen), and proteins transferred overnight onto 0.45 µm polyvinylidene difluoride (PVDF) membranes. The membranes were then incubated with the indicated primary antibodies overnight at 4° C. followed by incubation with secondary antibodies (Li-Cor) for 1 hour at room temperature, which were detected using the Odyssey CLx Infrared Imaging System (Li-Cor). Band intensities were quantified using Image Studio (Li-Cor).\n(§3) Total RNA was isolated using the RNeasy Plus kit (Qiagen) and quantified using a ND-1000 spectrophotometer. cDNA was prepared using 1000 ng total RNA by a reverse transcription PCR (RT-PCR) using a high capacity cDNA reverse transcription kit (Applied Biosystems). qPCR was performed on cDNA using SYBR Green chemistry. qPCR was performed on a Biorad CFX touch PCR using Applied Biosystems PowerUp SYBR green master mix. Fold changes in expression were calculated by the ΔΔCt method using mouse β-Actin as an endogenous control for mRNA expression. All fold changes were expressed normalized to the untreated control. […]"}, "[2]": {"tested_on": "AANAT-KO differentiated N2a cells", "assay": "Cytokine ELISA in culture medium of differentiated N2a cells", "format": "cell-based, mouse", "settings": "melatonin 5 µM", "description": "as §1"}, "[3]": {"tested_on": "AANAT-KO differentiated N2a cells", "assay": "Neurite length and number by βIII-tubulin staining", "format": "cell-based, mouse", "settings": "melatonin 5 µM", "description": "as §1, with “(2014)). […]” for “(2014)).”"}, "[4]": {"tested_on": "AANAT-KO primary cerebrocortical neurons (PCNs)", "assay": "Immunoblot of cGAS, STING, IRF3, caspase-1 in PCNs", "format": "cell-based, mouse", "settings": "AANAT-KO PCN, DIV21, melatonin 5 µM", "description": "(§4) N2a cells were obtained from ATCC and grown in DMEM/F12 medium with 10% FBS. AANAT-KO N2a cells were generated as described elsewhere (see, e.g., Suofu et al., PNAS 114:E7997-E8006 (2017)). N2a cells were differentiated by exposing them to 10 µM retinoic acid (RA) with 2% fetal bovine serum (FBS) for 8 days. Every alternate day, the culture medium of differentiating N2a cells was replaced with fresh medium containing 10 µM of RA. N2a cells were treated with 5 µM melatonin during differentiation to evaluate the effect of melatonin in WT and AANAT-KO N2a differentiated neurons. Fresh melatonin was added with RA every alternate day for 8 days. All experiments were performed in 8-day-differentiated neurons with or without melatonin. […]\nas §2"}, "[5]": {"tested_on": "AANAT-KO differentiated N2a cells", "assay": "qPCR of cytosolic mtDNA in differentiated N2a cells", "format": "cell-based, mouse", "settings": "melatonin 5 µM", "description": "as §1, with “AANAT-KO and littermate WT primary cerebro-cortical neuron (PCN) cultures were prepared from embryonic day (E) 15.5 embryos, as described elsewhere (see, e.g., Yano et al., Nature neuroscience 17:822 (2014)).” left out\n(§5) For measurement of mtDNA in cytosol in cells, cell fractions were prepared using Cell Fractionation Kit (Abeam). […] The copy number of mtDNA encoding cytochrome c oxidase 1 (mt-CO1), mt-Dloop1 and mt-Dloop3 was measured by quantitative real-time PCR with same volume of DNA solution. […]"}, "[6]": {"tested_on": "AANAT-KO differentiated N2a cells", "assay": "Immunoblot of inflammatory, caspase and synaptic markers in differentiated N2a cells", "format": "cell-based, mouse", "settings": "melatonin 5 µM", "description": "as §1, §2"}, "[7]": {"tested_on": "mitochondria of AANAT-KO differentiated N2a cells", "assay": "Mitochondrial in vitro protein import assay (pOTC/mOTC)", "format": "cell-based, mouse", "settings": "melatonin", "description": "as §4, with “melatonin. STHdh^Q7/Q7 (Q7) STHdh^Q111/Q111 (Q111) cells were grown in MEM culture medium with 10% FBS.” for “melatonin.”\nOrnithine transcarbamylase (OTC) precursor cDNA in pGEM-3Zf(+)-pOTC plasmid was transcribed and translated in vitro using the TNT Coupled Reticulocyte Lysate System (Promega) in the presence of [^35S] methionine (PerkinElmer). […] Mature OTC, which represents the cleaved protein after translocation into the mitochondrial matrix, was quantified by ImageJ (NIH). […]"}, "[8]": {"tested_on": "AANAT-KO differentiated N2a cells", "assay": "8-OHDG immunofluorescence (mtDNA oxidative damage) in differentiated N2a cells", "format": "cell-based, mouse", "settings": "melatonin 5 µM", "description": "as §1, with “(2014)). […]” for “(2014)).”"}, "[9]": {"tested_on": "AANAT-KO primary cerebrocortical neurons (PCNs)", "assay": "qPCR of cytosolic mtDNA in PCNs", "format": "cell-based, mouse", "settings": "AANAT-KO PCN, DIV21, melatonin 5 µM", "description": "as §1, with “AANAT-KO and littermate WT primary cerebro-cortical neuron (PCN) cultures were prepared from embryonic day (E) 15.5 embryos, as described elsewhere (see, e.g., Yano et al., Nature neuroscience 17:822 (2014)).” left out\nas §5"}, "[10]": {"tested_on": "AANAT-KO differentiated N2a cells", "assay": "ROS (Mitosox) and MMP (JC-1/TMRM) in differentiated N2a cells", "format": "cell-based, mouse", "settings": "melatonin 5 µM", "description": "as §4, with “melatonin. STHdh^Q7/Q7 (Q7) STHdh^Q111/Q111 (Q111) cells were grown in MEM culture medium with 10% FBS.” for “melatonin.”\n(§6) ROS accumulation in cells was estimated by either DCFDA for total ROS or Mitosox for mitochondrial ROS. Cells were incubated in 20 µM DCFDA for 45 minutes or 5 µM Mitosox for 15 minutes at 37° C. and fluorescence was measured using plate reader or flowcytometry. […] Cells were incubated in 2 µg/mL JC-1 or 25 nM TMRM for 30 minutes at 37° C. and fluorescence were measured using plate reader or flowcytrometry. […]"}, "[11]": {"tested_on": "AANAT-KO primary cerebrocortical neurons (PCNs)", "assay": "MMP (TMRM) and mitochondrial ROS (Mitosox) in PCNs", "format": "cell-based, mouse", "settings": "AANAT-KO PCN, DIV21, melatonin 5 µM in culture medium", "description": "as §4, with “melatonin. STHdh^Q7/Q7 (Q7) STHdh^Q111/Q111 (Q111) cells were grown in MEM culture medium with 10% FBS.” for “melatonin.”\nas §6"}, "[12]": {"tested_on": "Q7 and Q111 differentiated neurons", "assay": "Cytokine ELISA and mRNA qPCR in differentiated Q7 and Q111 neurons", "format": "cell-based, mice", "settings": "Q111 differentiated neurons transfected with DNase 1, LDH control", "description": "as §4, with “melatonin. STHdh^Q7/Q7 (Q7) STHdh^Q111/Q111 (Q111) cells were grown in MEM culture medium with 10% FBS.” for “melatonin.”\nas §3, with “expression.” for “expression. All fold changes were expressed normalized to the untreated control.”"}, "Q111 cells": {"tested_on": "Q111 cells", "assay": "ROS (Mitosox) and MMP (TMRM) in differentiated Q7 and Q111 neurons", "format": "cell-based, mice", "settings": "Q111 cells transfected with DNase 1, 2 µg/mL, LDH control", "description": "as §4, with “melatonin. STHdh^Q7/Q7 (Q7) STHdh^Q111/Q111 (Q111) cells were grown in MEM culture medium with 10% FBS.” for “melatonin.”\nas §6"}, "[13]": {"tested_on": "Q7 and Q111 differentiated neurons", "assay": "Immunoblot of cGAS, IRF3, STING in differentiated Q7 and Q111 neurons", "format": "cell-based, mice", "settings": "differentiated Q111 neurons transfected with DNase 1, LDH control", "description": "as §4\nas §2, with “Studio (Li-Cor). […]” for “Studio (Li-Cor).”"}},
  "data": [
    {"molecule": "COc1ccc2[nH]cc(CCNC(C)=O)c2c1", "note": "[melatonin, Melatonin]", "values": [
      {"measurement": "proinflammatory cytokines secretion", "setting": "[1]", "result": "inhibited"},
      {"measurement": "expression of pro-inflammatory cytokines in brain", "setting": "R6/2 mice", "result": "reduced"},
      {"measurement": "cGAS/STING/IRF3 upregulation", "setting": "R6/2 mice; cortex and striatum", "result": "ameliorated"},
      {"measurement": "mtDNA release (cytosolic mtDNA)", "setting": "R6/2 mice; cortex and striatum", "result": "inhibited"},
      {"measurement": "pro-inflammatory cytokines secretion", "setting": "[2]", "result": "inhibited"},
      {"measurement": "average neurite length", "setting": "[3]", "result": "rescued"},
      {"measurement": "average neurite number", "setting": "[3]", "result": "rescued"},
      {"measurement": "cGAS/STING/IRF3 protein levels", "setting": "[4]", "result": "inhibited"},
      {"measurement": "caspase-1", "setting": "[4]", "result": "inhibited"},
      {"measurement": "mtDNA release (cytosolic mtDNA)", "setting": "[5]", "result": "prevented"},
      {"measurement": "caspase-3 activation", "setting": "[6]", "result": "inhibited"},
      {"measurement": "expression of PSD95 (post-synaptic marker)", "setting": "[6]", "result": "increased"},
      {"measurement": "expression of synaptophysin (pre-synaptic marker)", "setting": "[6]", "result": "increased"},
      {"measurement": "inflammatory signaling pathways (Nf-kβ phosphorylation, caspase-1 cleavage, cGAS/STING/IRF3 levels)", "setting": "[6]", "result": "inhibited"},
      {"measurement": "mitochondrial protein import", "setting": "[7]", "result": "mitigated"},
      {"measurement": "mtDNA damage (8-OHDG)", "setting": "[8]", "result": "mitigated"},
      {"measurement": "cytosolic mtDNA (mt-CO1, mt-Dloop1, mt-Dloop3)", "setting": "[9]", "result": "inhibited"},
      {"measurement": "MMP (JC-1 fluorescence)", "setting": "[10]", "result": "mitigated"},
      {"measurement": "ROS (Mitosox fluorescence)", "setting": "[10]", "result": "mitigated"},
      {"measurement": "MMP (TMRM fluorescence)", "setting": "[11]", "result": "restored"},
      {"measurement": "mitochondrial ROS (Mitosox)", "setting": "[11]", "result": "restored"}
    ]},
    {"molecule": "B1", "values": [
      {"measurement": "proinflammatory cytokine secretion", "setting": "[12]", "result": "inhibited"},
      {"measurement": "elevated ROS (Mitosox)", "setting": "Q111 cells", "result": "did not alter"},
      {"measurement": "reduced MMP (TMRM)", "setting": "Q111 cells", "result": "did not alter"},
      {"measurement": "cGAS/STING/IRF3 levels", "setting": "[13]", "result": "inhibited"}
    ]}
  ]
}
